According to US20180325914A1, “INCREASING STORAGE OF VITAMIN A, VITAMIN D AND/OR LIPIDS” (Salk Institute for Biological Studies, priority 2014, published 2018):

System: primary HSCs

## Cc1sc2c(c1C)C(c1ccc(Cl)cc1)=N[C@@H](CC(=O)OC(C)(C)C)c1nnc(C)n1-2 [JQ1, (S)-tert-butyl 2-(4-(4-chlorophenyl)-2,3,9-trimethyl-6H-thieno[3,2-f][1,2,4]triazolo[4,3-a][1,4]diazepin-6-yl)acetate]
Gene Pla2r1, mRNA-Seq, sample Day_6_JQ1
  Pla2r1 value_2: 26.6778
Gene Plat, mRNA-Seq, sample Day_6_JQ1
  Plat value_2: 141.636
Gene Prelp, mRNA-Seq, sample Day_6_JQ1
  Prelp value_2: 1220.99
Gene Prss35, mRNA-Seq, sample Day_6_JQ1
  Prss35 value_2: 23.844
Gene Ptms, mRNA-Seq, sample Day_6_JQ1
  Ptms value_2: 627.919
Gene Ptrf, mRNA-Seq, sample Day_6_JQ1
  Ptrf value_2: 259.645
Gene Qpct, mRNA-Seq, sample Day_6_JQ1
  Qpct value_2: 87.1308
Gene Rad51, mRNA-Seq, sample Day_6_JQ1
  Rad51 value_2: 12.1115
Gene Rbp1, mRNA-Seq, sample Day_6_JQ1
  Rbp1 value_2: 218.378
Gene Reck, mRNA-Seq, sample Day_6_JQ1
  Reck value_2: 17.3878
Gene Rrm2, mRNA-Seq, sample Day_6_JQ1
  Rrm2 value_2: 68.04
Gene Rtn1, mRNA-Seq, sample Day_6_JQ1
  Rtn1 value_2: 47.263
Gene S100a4, mRNA-Seq, sample Day_6_JQ1
  S100a4 value_2: 250.226
Gene Sbsn, mRNA-Seq, sample Day_6_JQ1
  Sbsn value_2: 16.3231
Gene Scara3, mRNA-Seq, sample Day_6_JQ1
  Scara3 value_2: 43.4366
Gene Sdpr, mRNA-Seq, sample Day_6_JQ1
  Sdpr value_2: 94.9074
Gene Serpini1, mRNA-Seq, sample Day_6_JQ1
  Serpini1 value_2: 12.3234
Gene Sesn3, mRNA-Seq, sample Day_6_JQ1
  Sesn3 value_2: 27.3512
Gene Shcbp1, mRNA-Seq, sample Day_6_JQ1
  Shcbp1 value_2: 11.9996
Gene Shisa2, mRNA-Seq, sample Day_6_JQ1
  Shisa2 value_2: 144.995
Gene Slc2a8, mRNA-Seq, sample Day_6_JQ1
  Slc2a8 value_2: 16.1545
Gene Slc9a3r1, mRNA-Seq, sample Day_6_JQ1
  Slc9a3r1 value_2: 161.158
Gene Snai2, mRNA-Seq, sample Day_6_JQ1
  Snai2 value_2: 23.1888
Gene Spag5, mRNA-Seq, sample Day_6_JQ1
  Spag5 value_2: 9.803
Gene Spc25, mRNA-Seq, sample Day_6_JQ1
  Spc25 value_2: 27.2563
Gene Svep1, mRNA-Seq, sample Day_6_JQ1
  Svep1 value_2: 86.2113
Gene Tbx20, mRNA-Seq, sample Day_6_JQ1
  Tbx20 value_2: 54.5866
Gene Tcf19, mRNA-Seq, sample Day_6_JQ1
  Tcf19 value_2: 43.53
Gene Timp2, mRNA-Seq, sample Day_6_JQ1
  Timp2 value_2: 329.559
Gene Top2a, mRNA-Seq, sample Day_6_JQ1
  Top2a value_2: 41.0029
Gene Upk1b, mRNA-Seq, sample Day_6_JQ1
  Upk1b value_2: 78.8086
Gene Wdr6, mRNA-Seq, sample Day_6_JQ1
  Wdr6 value_2: 56.5942
Gene Zwilch, mRNA-Seq, sample Day_6_JQ1
  Zwilch value_2: 13.4294
mRNA-Seq expression, Day_6_JQ1
  3110003A17Rik value_2: 104.778
  6330406I15Rik value_2: 30.5279
  9030617O03Rik value_2: 9.249
  AI597468 value_2: 20.0206
  Adam12 value_2: 22.1402
  Adora2b value_2: 12.9207
  Aga value_2: 42.0303
  Ak3 value_2: 27.7827
  Anxa6 value_2: 122.139
  Arhgef10 value_2: 5.987
  Ass1 value_2: 41.1545
  Atp8b2 value_2: 19.4721
  Btg2 value_2: 38.7075
  C1qtnf1 value_2: 19.1118
  C1qtnf6 value_2: 58.5752
  Cav1 value_2: 17.5128
  Ccdc104 value_2: 19.7014
  Ccdc109b value_2: 9.232
  Cdc42bpa value_2: 16.5997
  Cdkn2b value_2: 41.7085
  Chst14 value_2: 18.8651
  Ckap4 value_2: 147.656
  Cnn2 value_2: 222.556
  Col5a1 value_2: 106.143
  Col5a2 value_2: 372.729
  Col6a1 value_2: 47.4496
  Col8a1 value_2: 69.7251
  Cpe value_2: 54.9734
  Cpz value_2: 4.843
  Csrp1 value_2: 294.801
  Cygb value_2: 51.8956
  Cyp51 value_2: 13.4382
  Dcaf12l1 value_2: 3.456
  Dlg4 value_2: 9.101
  Dnajb4 value_2: 44.3814
  Dst value_2: 16.9506
  Eda2r value_2: 23.0105
  Efemp2 value_2: 169.818
  Epdr1 value_2: 7.336
  Evc2 value_2: 7.337
  Fam114a1 value_2: 29.7898
  Fam115c value_2: 4.611
  Fam149a value_2: 4.452
  Fam189b value_2: 7.431
  Fgf18 value_2: 10.4873
  Fhl2 value_2: 40.1985
  Flnc value_2: 24.3492
  Fzd2 value_2: 16.4688
  Gabra3 value_2: 14.8418
  Gas6 value_2: 41.2636
  Gm5424 value_2: 5.331
  Gpx8 value_2: 110.547
  Grhpr value_2: 13.8722
  Gria3 value_2: 4.78
  Igfbp3 value_2: 483.66
  Igsf8 value_2: 44.7273
  Il1rap value_2: 20.7058
  Inpp5a value_2: 33.3765
  Isoc2b value_2: 4.059
  Kif1a value_2: 6.57
  LOC100616095 value_2: 13.992
  Lama2 value_2: 9.263
  Lars2 value_2: 12.6226
  Lpp value_2: 24.9042
  Lrig3 value_2: 4.218
  Lrrn4 value_2: 11.7356
  Maged2 value_2: 60.8426
  Mboat7 value_2: 28.6438
  Meg3 value_2: 15.1775
  Mlec value_2: 92.0676
  Mmgt2 value_2: 10.425
  Mmp2 value_2: 73.6315
  Mpp2 value_2: 4.639
